The structures appear in SMILES notation.

This is an account of results in patent US20260374731A1, “ANTIMICROBIAL CONJUGATED OLIGOELECTROLYTES AS BROAD-SPECTRUM ANTIBIOTICS” (The Regents of the University of California, priority 2023, published 2026).

In data set [1] the test system is S. aureus (SA) ATCC 259213. The experiment in a line: Susceptibility test (MIC), broth dilution, S. aureus. In kind it is cell-based. The note with it: Staphylococcus aureus, ATCC259213, read-out: Minimum Inhibitory Concentration. As for the experimental part: (§1) The minimum inhibitory concentration (MIC) was determined according to the Clinical and Laboratory Standards Institute (CLSI) guidelines by broth dilution. Bacteria were cultured in an appropriate medium (such as Cation-Adjusted Muller Hinton Broth) for 6-12 hours and diluted into same medium containing 2-fold serial dilutions of antibiotics. MIC values were derived after 14-20 hour incubation, and were the result of at least 3 independent determinations. The MIC study included Gram-negative strains Salmonella enterica Typhimurium (ST) ATCC 14028, E. coli (EC) ATCC 25922, Pseudomonas aeruginosa (PA) ATCC 27853, and Klebsiella pneumoniae (KPN) ATCC 700603 and Gram-positive strain S. aureus (SA) ATCC 259213.

The test system of data set [2] is Salmonella enterica Typhimurium (ST) ATCC 14028. Put plainly: Susceptibility test (MIC), broth dilution, Salmonella enterica Typhimurium. In kind it is cell-based. The note with it: Salmonella enterica Typhimurium ATCC 14028, 14-20 hour incubation, read-out: Minimum Inhibitory Concentration. As for the experimental part: as §1
On the technique in general: Broth dilution looks for growth in wells or tubes with falling amounts of substance.

A further data set relates to E. coli (EC) ATCC 25922. Put plainly: Susceptibility test (MIC), broth dilution, E. coli. Format: cell-based. The note with it: Escherichia coli, ATCC25922, E. coli ATCC 25922, 14-20 hour incubation, read-out: Minimum Inhibitory Concentration. As for the experimental part:
as §1

Data set [3] concerns Klebsiella pneumoniae (KPN) ATCC 700603. The experiment in a line: Susceptibility test (MIC), broth dilution, Klebsiella pneumoniae. The note with it: ATCC700603, Klebsiella pneumoniae ATCC 700603, 14-20 hour incubation, read-out: Minimum Inhibitory Concentration. In kind it is cell-based. As for the experimental part: as §1
Data set [4] deals with Pseudomonas aeruginosa (PA) ATCC 27853. Put plainly: Susceptibility test (MIC), broth dilution, Pseudomonas aeruginosa. In kind it is cell-based. The note with it: ATCC27853, Pseudomonas aeruginosa ATCC 27853, 14-20 hour incubation, read-out: Minimum Inhibitory Concentration. As for the experimental part: as §1
Data set [5] in a line: Cytotoxicity, MTT viability assay, HepG2. Format: cell-based. The note with it: human, hepg2 cells; HepG2, MTT, 24 h incubation, 8 to 1024 μg/mL; lowest concentration with viability less than 50%; read-out: Cytotoxicity (IC50). As for the experimental part:
(§2) Cellular cytotoxicity was assessed using an MTT viability assay. HepG2 (ATCC HB-8065) cells were seeded at 1×10^4 cells/well in 96 well plates over night at 37 °C in DMEM supplemented with 10% FBS before use. Compounds were serially diluted with 2-fold dilution in culture media to afford a concentration ranging from 8 to 1024 μg/mL. After 24 h incubation, 10 μL of a 5 mg/mL solution of MTT was added to each well. After incubation for 2-4 h, upon discard of previous media, 100 μL of DMSO as solubilizing solution was added to each well, and absorbance at 570 nm were measured on a plate reader. Percent viability was determined by dividing background-corrected absorbance measurements by background corrected measurements for untreated cells. The lowest concentration for which percent viability was less than 50% was deemed the cytotoxicity IC50.
A general note: Tetrazolium dyes change colour on reduction, which living cells bring about.

Data set [6] concerns HepG2 (ATCC HB-8065) cells. Put plainly: Cytotoxicity, MTT viability assay, HepG2. In kind it is cell-based. As for the experimental part:
as §2

For data set [7], the system named is all tested bacterial strains. The experiment in a line: Susceptibility test, comparison over all tested bacterial strains. Format: cell-based, Gram-positive and Gram-negative bacteria. As for the experimental part:
as §1

Data set [8] is described as follows: Hydrophobicity (comparison; RP-HPLC retention times in Table 1). In kind it is physicochemical. The text has this:
The MIC and cytotoxicity results for previously-described quaternary ammonium COEs COE2-3C, COE2-3C-C4butyl, and COE2-3C-C4hexyl are consistent with previous data (See Limwongyut et al., Chem. Sci. (2020) 11 (31): 8138-8144).

Setting [9] is: Formula K and Formula A compared with each other.
Where [10] appears, read: Formula A compared with COE2-3C and COE2-3C-C4butyl.
Setting [11] is: Formula C and Formula K compared with each other.
The mark [12] stands for this setting: Formula C compared with COE2-3C-C4butyl.

As to `C(=C\c1cc(OCCCNC2=NCCC2)cc(OCCCNC2=NCCC2)c1)/c1ccc(/C=C/c2cc(OCCCNC3=NCCC3)cc(OCCCNC3=NCCC3)c2)cc1` [Formula J], the MIC was 1 µg/mL in data set [1]; 2 µg/mL in data set [2]; 1 µg/mL in the data set on E. coli (EC) ATCC 25922; 16 µg/mL in data set [3]; 16 µg/mL in data set [4]. The CC50 at 24 h in data set [5] worked out at 1020 µg/mL.

As to `N=C(CC1CC1)NCCCOc1cc(/C=C/c2ccc(/C=C/c3cc(OCCCNC(=N)CC4CC4)cc(OCCCNC(=N)CC4CC4)c3)cc2)cc(OCCCNC(=N)CC2CC2)c1` [Formula G], the MIC worked out at 1 µg/mL in data set [1]; 2 µg/mL in [2]; 2 µg/mL in the data set on E. coli (EC) ATCC 25922; 4 µg/mL in data set [3]; 8 µg/mL in data set [4]. Also, the CC50 at 24 h in [5] worked out at 256 µg/mL.

As for `CCC(=N)N(CCCOc1cc(/C=C/c2ccc(/C=C/c3cc(OCCCN(C(=N)CC)C4CC4)cc(OCCCN(C(=N)CC)C4CC4)c3)cc2)cc(OCCCN(C(=N)CC)C2CC2)c1)C1CC1` [Formula E], the MIC was 1 µg/mL in data set [1]; 2 µg/mL in data set [2]; 2 µg/mL in the data set on E. coli (EC) ATCC 25922; 8 µg/mL in [3]; 16 µg/mL in data set [4]. The CC50 at 24 h in data set [5] was determined as 128 µg/mL.

For `N=C(NCCCOc1cc(/C=C/c2ccc(/C=C/c3cc(OCCCNC(=N)C4CC4)cc(OCCCNC(=N)C4CC4)c3)cc2)cc(OCCCNC(=N)C2CC2)c1)C1CC1` [Formula A], the MIC in data set [1] worked out at 0.5 µg/mL; in [2] it was 1 µg/mL; with E. coli (EC) ATCC 25922, 1 µg/mL; in data set [3], 4 µg/mL; in [4], 2 µg/mL. For the same molecule, the CC50 at 24 h in data set [5] is greater than 1020 µg/mL. In addition, the “cytotoxicity (comparison)” value in data set [6] (setting [9]) is recorded as “similar”. The “activity against all tested bacterial strains” value (shortened to “activity”) is “considerably higher activity against all tested bacterial strains” in data set [7] (setting [10]) and “more active against all tested bacterial strains” in [7] (Formula A compared with Formula K). Further, in [8] (setting [10]), the “hydrophobicity (comparison)” value is “intermediate hydrophobicity”.

In the case of `CCCN(CCCOc1cc(/C=C/c2ccc(/C=C/c3cc(OCCCN(CCC)C(=N)CC)cc(OCCCN(CCC)C(=N)CC)c3)cc2)cc(OCCCN(CCC)C(=N)CC)c1)C(=N)CC` [Formula F], the MIC in [1] is 1 µg/mL; in data set [2] it was 2 µg/mL; in the data set with E. coli (EC) ATCC 25922 it was 2 µg/mL; in [3], 8 µg/mL; in data set [4], 16 µg/mL. Further, the CC50 at 24 h in [5] turned out to be 32 µg/mL.

On to `CCCN(CCCOc1cc(/C=C/c2ccc(/C=C/c3cc(OCCCN(CCC)C(=N)C4CC4)cc(OCCCN(CCC)C(=N)C4CC4)c3)cc2)cc(OCCCN(CCC)C(=N)C2CC2)c1)C(=N)C1CC1` [Formula C], for which the MIC was found to be 1 µg/mL in [1]; 2 µg/mL in data set [2]; 2 µg/mL in the data set with E. coli (EC) ATCC 25922; 8 µg/mL in data set [3]; 32 µg/mL in [4]. The CC50 at 24 h in data set [5] was 16 µg/mL. The “cytotoxicity (comparison)” value was “different cytotoxicity” in [6] (setting [11]) and “similar” in data set [6] (setting [12]). The figures for the “activity” value in data set [7] (setting [11]) and in data set [7] (setting [12]) were “identical activities against all tested bacterial strains” and “more active against all tested bacterial strains”, respectively. The “hydrophobicity (comparison)” value in [8] (setting [11]) was “different”.

As for `C/C(=N\C1CC1)NCCCOc1cc(/C=C/c2ccc(/C=C/c3cc(OCCCN/C(C)=N/C4CC4)cc(OCCCN/C(C)=N/C4CC4)c3)cc2)cc(OCCCN/C(C)=N/C2CC2)c1` [Formula K], the MIC in data set [1] is 1 µg/mL; in data set [2] it was 2 µg/mL; in the data set with E. coli (EC) ATCC 25922, 2 µg/mL; in data set [3] it was 8 µg/mL; in data set [4] it was 32 µg/mL. Further, the CC50 at 24 h in [5] is greater than 1020 µg/mL. The “cytotoxicity (comparison)” value is given as “different cytotoxicity” in data set [6] (setting [11]) and “similar” in data set [6] (setting [9]). For the same molecule, the “activity” value in [7] (setting [11]) is reported as “identical activities against all tested bacterial strains”. Moreover, the “hydrophobicity (comparison)” value in data set [8] (setting [11]) is given as “different”.

For `CN(CCCOc1cc(/C=C/c2ccc(/C=C/c3cc(OCCCN(C)C(=N)C4CC4)cc(OCCCN(C)C(=N)C4CC4)c3)cc2)cc(OCCCN(C)C(=N)C2CC2)c1)C(=N)C1CC1` [Formula B], the MIC amounted to 1 µg/mL in data set [1]; 1 µg/mL in data set [2]; 1 µg/mL in the data set on E. coli (EC) ATCC 25922; 8 µg/mL in data set [3]; 8 µg/mL in [4]. In addition, the CC50 at 24 h in data set [5] was 1020 µg/mL.

For `C/N=C(\C)NCCCOc1cc(/C=C/c2ccc(/C=C/c3cc(OCCCN/C(C)=N/C)cc(OCCCN/C(C)=N/C)c3)cc2)cc(OCCCN/C(C)=N/C)c1` [Formula H], the MIC was found to be 1 µg/mL in [1]; 2 µg/mL in [2]; 2 µg/mL in the data set with E. coli (EC) ATCC 25922; 16 µg/mL in [3]; 32 µg/mL in data set [4]. In addition, the CC50 at 24 h in [5] is greater than 1020 µg/mL.

With `CCC(=N)N(C)CCCOc1cc(/C=C/c2ccc(/C=C/c3cc(OCCCN(C)C(=N)CC)cc(OCCCN(C)C(=N)CC)c3)cc2)cc(OCCCN(C)C(=N)CC)c1` [Formula D], the MIC in [1] was 1 µg/mL; in data set [2] it was 2 µg/mL; in the data set with E. coli (EC) ATCC 25922, 1 µg/mL; in data set [3], 16 µg/mL; in data set [4], 8 µg/mL. For the same molecule, in data set [5], the CC50 at 24 h was greater than 1020 µg/mL.
